This note sets out measurements from the OPERA property sets (Mansouri et al. 2018).

Where a SMILES comes first, the peptide text is derived from it. The star is where a group is joined. NHtBu = CC(C)(C)N*

Regarding `Cc1ccc(OCc2ccccc2CCCN2CCC(O)CC2)cc1`, the logP amounted to 3.5.
Next, `C=C(C)c1c(OC)cc(Cc2cnc(N)nc2N)cc1OCC`: 2.65; `Cc1nonc1Cc1ccc([N+](=O)[O-])cc1`: 2.21.
Under `CCC(=O)C1(c2cccc(O)c2)CCN(C)CC1` stands 1.02.
Under `c1ccc(Cn2ncnn2)cc1` stands 1.03; under `CCCNC(=O)C1(O)C(C)CC2C3CCC4=CC(=O)C=CC4(C)C3(F)C(O)CC21C` (stereo unspecified), 2.59.
As for `Cn1ccc(=O)c2ccccc21`, the logP is 0.44.
Next, `CCC1(CC)OCC(c2ccc(NC(=O)N(C)C)cc2C)CO1`: 2.76.
Next, `CCC(=O)OC(C(=O)NC1C(=O)N2C(C(=O)O)=C(C)CSC12)c1ccccc1` (stereo unspecified): 1.47; `CC1CC2C3CCC4=CC(=O)C=CC4(C)C3(F)C(O)CC2(C)C1(O)C(=O)NC1CCCCC1` (stereo unspecified): 3.54; `O=P([O-])(Oc1ccc(Cl)cc1)Oc1ccc(Cl)cc1`: 2.64.
Next, `c1ccc(-c2ccc(C(c3ccccc3)n3ccnc3)cc2)cc1` (stereo unspecified): 4.77; `O=c1nc(N=CN2CCOCC2)ccn1C1OC(CO)C(O)C1O` (stereo unspecified): -1.66; `CCNC(=O)C1(O)C(C)CC2C3CCC4=CC(=O)C=CC4(C)C3(F)C(O)CC21C` (stereo unspecified): 2.07.
In turn, `CCN1C(=O)C(=O)c2cccc(OC)c2C1=O` yielded a logP of 0.94.
Under `COCC(Cn1ccnc1[N+](=O)[O-])OC` (stereo unspecified) stands 0.06; under `S=C=NCCCc1ccccc1`, 3.8; under `C#CCOc1c(Cl)cc(NC=NOCOC)cc1Cl`, 3.2.
Under `O=S1(=O)NC(C2CC=CC2)=Nc2ccccc21` stands 1.53; under `Cc1cc(NC(=O)C2=C(O)c3ccccc3S(=O)(=O)N2C)no1`, 2.83.
Next, `CCC(C)C(=O)OC1CCC=C2C=CC(C)C(CCC(O)CC(O)CC(=O)O)C21` (stereo unspecified): 3.6; `Cc1cn(C2CC(N=[N+]=[N-])C(COC(=O)CCCNC(=O)C34CC5CC(CC(C5)C3)C4)O2)c(=O)[nH]c1=O` (stereo unspecified): 2.47.
`Clc1ccc(-c2c(Cl)c(Cl)cc(Cl)c2Cl)cc1Cl`: the logP was 7.2.
Next, `ClC1CC(Cl)C(Cl)CC1Cl` (stereo unspecified): 2.82; `Clc1cc(Cl)c2c(c1)Oc1c(cc(Cl)c(Cl)c1Cl)O2`: 6.53; `CCC(=O)C(CS(=O)(=O)c1ccc(C)cc1)c1ccc(OC)cc1` (stereo unspecified): 2.47.
Next, `C#CCCOCn1ccnc1C=NO`: 0.67; `O=[N+]([O-])C=C1NCCN1Cc1cccnc1`: -1.02.
Under `CC(=O)NC(CC(C)C)C(=O)NC(CCCCN)C(=O)NC(Cc1ccccc1)C(N)=O` (stereo not drawn) (Ac-Leu-Lys-Phe-NH2; configuration not given here) stands 1.14.
`CC(=O)NC(CC(C)C)C(=O)NC(CC(=O)O)C(=O)NC(CC(C)C)C(N)=O` (stereo not drawn) (Ac-Leu-Asp-Leu-NH2; configuration not given here) showed a logP of 0.16.
Next, `CCOC(=O)c1cccc2c1C(=O)C(=O)N(CC)C2=O`: 1.31; `O=c1nc(N=CN2CCOCC2)ccn1C1CC(O)C(CO)O1` (stereo unspecified): -1.54; `CSCCNC(=O)C(F)(F)Cn1cnc([N+](=O)[O-])n1`: 0.41.
Under `CCOC(=O)Oc1cccc(C2(C(=O)CC)CCN(C)CC2)c1` stands 1.29; under `CNC(=O)OCc1c2c(n3c1C(OC(C)=O)CC3)C(=O)C(C)=C(OC)C2=O` (stereo unspecified), 2.39.
Under `O=[N+]([O-])C=C1NCCN1c1ccc(Cl)nc1` stands -0.23.
With `Cc1ccc2c(=O)[nH]c(=O)[nH]c2c1`, the logP is 0.55.
Next, `CC(=O)NC(C)C(=O)NC(CCC(=O)O)C(=O)NC(C)C(=O)NC(C)(C)C` (stereo not drawn) (Ac-Ala-Glu-Ala-NHtBu; configuration not given here): -0.67; `COCCn1cnc2c(=O)[nH]c(Nc3ccccc3)nc21`: 1.2.
`CCN(CC)N=Nc1ccccc1C(N)=O`: the lipophilicity (logP) came to 2.96.
Under `CC(C)(N=C(O)C(Br)C(C)(C)C)c1ccccc1` (stereo unspecified) stands 3.47; under `c1ccc(Cn2cnnn2)cc1`, 1.36.
Next, `NC1=NCC2c3ccccc3Cc3ccccc3N12` (stereo unspecified): 3.51.
Next, `COCCCNC(=S)C(F)(F)Cn1cnc([N+](=O)[O-])n1`: 1.1; `COC(=O)C(C#N)=NNc1ccc(S(=O)(=O)C(F)(F)F)cc1`: 4.22.
Take `C#CCON=CNc1cc(Cl)c(OCC#C)c(Cl)c1`: the logP worked out at 3.3.
Next, `N#CCc1ccc(O)c2ncccc12`: 1.81.
Next, `CC(=O)NC(CC(C)C)C(=O)NC(CCC(=O)O)C(=O)NC(Cc1ccccc1)C(N)=O` (stereo not drawn) (Ac-Leu-Glu-Phe-NH2; configuration not given here): 0.47; `COC(O)Cn1c([N+](=O)[O-])nc(Br)c1Br` (stereo unspecified): 1.02.
`CCCCOC(=O)n1cc(F)c(=O)[nH]c1=O` had a logP of 0.89.
Under `CN(C)CCn1nnnc1SCC1=C(C(=O)OCOC(=O)C(C)(C)C)N2C(=O)C(NC(=O)Cc3csc(N)n3)C2SC1` (stereo unspecified) stands 1.57; under `CCN(C=Nc1ccn(C2CC(O)C(CO)O2)c(=O)n1)CC` (stereo unspecified), -0.59.
Under `COc1cc(OCc2ccccc2CCCN2CCC(O)CC2)cc(OC)c1OC` stands 2.6; under `COc1cccc(N2CCN(CCN(C)C)C2=O)c1`, 1.76.
Under `CCn1cc(C(=O)O)c(=O)c2ccc(C)nc21` stands 1.59; under `O=C1C(Br)=C(N2CC2)C(=O)C(Br)=C1N1CC1`, 2.03; under `CC(=O)OC1C(=O)C2(C)C(O)CC3OCC3(OC(C)=O)C2C(OC(=O)c2ccccc2)C2(O)CC(OC(=O)C(O)CNC(=O)c3ccccc3)C(C)=C1C2(C)C` (stereo unspecified), 1.75.
For the molecule `CCN1C(=O)C(=O)c2c(Cl)cccc2C1=O`, the logP was determined as 1.43.
Molecule `Cc1cc(=O)[nH]c(=O)[nH]1` yielded a logP of -0.77.
Next, `CCOC(=O)C(C)Oc1ccc(Oc2cnc3cc(C)ccc3n2)cc1` (stereo unspecified): 4.11; `Cc1c(O)c(=O)ccn1-c1ccccc1`: 1.12.
`NC(=O)c1ccccc1N=NN1CCC1` displayed a logP of 2.91.
Under `S=C(N/N=C/c1ccc[nH]1)Nc1ccccc1` stands 3.73; under `O=[N+]([O-])C=C1NCCN1CCc1ccc(Cl)nc1`, -0.23.
Regarding `N#CC(C#N)=NNc1c(Cl)cccc1Cl`, the logP was 4.51.
Under `CC1CN(c2cc3c(cc2F)c(=O)c(C(=O)O)cn3-c2ccc(F)cc2F)CCN1` (stereo unspecified) stands -0.2; under `CC(C)c1cccc(C(C)C)c1N`, 3.18.
Under `C#CCOc1c(Cl)cc(NC=NOC(C)CC)cc1Cl` (stereo unspecified) stands 4.2.
Next, `O=[N+]([O-])C=C1NCCN1Cc1ccc(Cl)cc1`: 0.99.
The molecule `CCCCCC(NC(C)=O)C(=O)OC` (stereo unspecified) displayed a logP of 1.28.
Under `Cc1[nH]cnc1CSCCNC1=NC(=O)CN1` stands -0.5.
`CCCn1c(=O)c2[nH]c(-c3ccc(Cl)cc3N)nc2n(CCC)c1=O`: the logP stood at 4.02.
Turning to `CN1C(=O)NC(=O)C(=O)C1=O`, the logP was -1.01.
Next, `CCC(=O)C1(c2cccc(OC(C)=O)c2)CCN(C)CC1`: 1.05; `CCCCCCOc1ccc(NC(=O)OCCN2CCOCC2)cc1`: 4.51; `CCc1nc(C)c([N+](=O)[O-])[nH]1`: 0.76.
In turn, `CCC(C)OC(=O)C(C(=O)OC(C)CC)=C1SC=CS1` (stereo unspecified) displayed a logP of 4.89.
Under `Nc1ncc(Cc2ccccc2Cl)c(N)n1` stands 2.24; under `O=[N+]([O-])c1c(Cl)c(Cl)cc(Cl)c1Cl`, 4.38.
Under `CCCCc1ccc(C(=O)OCCN(C)C)cc1` stands 4.06; under `COc1cc(C)c2c(c1OC)-c1ccc(OC)c(=O)cc1C(NC(=O)c1ccc([N+](=O)[O-])cc1)CC2` (stereo unspecified), 2.96; under `O=C(O)C(OCc1ccc(Cl)cc1)c1ccccc1` (stereo unspecified), 2.6.
Under `CN1C(C(=O)Nc2nccs2)=C(O)c2ccccc2S1(=O)=O` stands 1.64.
In turn, `Cc1nc(Br)c([N+](=O)[O-])n1C` showed a logP of 0.87.
Next, `CC(=O)NC(CCC(=O)O)C(N)=O` (stereo unspecified): -2.47.
As to `CN1C(=O)CN=C(c2ccccc2Cl)c2cc([N+](=O)[O-])ccc21`, the logP stood at 2.56.
Next, `C=CCOC1=NS(=O)(=O)c2ccccc21`: 1.4; `S=C=NCCCCCc1ccccc1`: 4.4.
Under `COCC(O)Cn1cc([N+](=O)[O-])nn1` (stereo unspecified) stands -0.36.
Under `CC(C)(C)n1ccnc1C=NO` stands 0.85; under `CC1=C(c2ccccc2)CCN(C)C1`, 3.18.
Consider `Cc1nnc(SCC2=C(C(=O)OCOC(=O)C(C)(C)C)N3C(=O)C(NC(=O)Cn4cnnn4)C3SC2)s1` (stereo unspecified), for which the logP stood at 1.34.
Under `CCN1CC(C(O)C(CC2CCCCC2)NC(=O)C(Cc2c[nH]cn2)NC(=O)C(Cc2ccc(OC)cc2)NC(=O)N(C)CCOCOC)OC1=O` (stereo unspecified) stands 2.3; under `CCC1COC(Cn2cncn2)(c2ccc(NC(=O)NC)cc2)O1` (stereo unspecified), 0.62.
Next, `OC1CCN(CCCc2ccccc2CSc2ccccc2)CC1`: 3.85; `CC(=O)NC(Cc1ccccc1)C(=O)NC(CCC(=O)O)C(=O)NC(Cc1ccccc1)C(N)=O` (stereo not drawn) (Ac-Phe-Glu-Phe-NH2; configuration not given here): 0.65.
`Cc1cc(Cl)c(Cl)cc1Cl`: the logP stood at 4.56.
Next, `C#CCOc1c(Cl)cc(NC=NOCSC)cc1Cl`: 3.6; `Fc1ccc(C(c2ccc(F)cc2)N2CCN(C/C=C/c3ccccc3)CC2)cc1`: 5.78.
Next, `Clc1ccc(Cl)c(-c2cc(Cl)c(Cl)c(Cl)c2Cl)c1`: 7.19; `CC(C)(C)C(=O)C(C#N)=NNc1ccc(Cl)cc1C(F)(F)F`: 5.67.
In turn, `Cc1ccccc1C(=O)NN(C(=O)c1ccccc1Cl)C(C)(C)C` returned a logP of 2.91.
Under `Cc1cccc(OC(C)C(=O)NNC(C)C)c1` (stereo unspecified) stands 1.88; under `O=c1nc(N=CN2CCCC2)ccn1C1OC(CO)C(O)C1O` (stereo unspecified), -1.15.
Next, `N#CC(CCc1ccc(Cl)cc1)(Cn1cncn1)c1ccccc1` (stereo unspecified): 3.23; `CN1CCN(Cc2ccc(Cl)nc2)C1=N[N+](=O)[O-]`: 0.26.

As usually defined, the logP is the decadic logarithm of the partition coefficient of the neutral form, usually between octanol and water.
